Experimental data published in PMC3009643 (BMC Neuroscience, 2010).
Like-named read-outs stand apart in the source and are kept apart here.

Assays:
[1] = tested on: neuro-2a mouse neuroblastoma cells; conditions: cited from earlier work; for fold less potent than ATX in producing toxicity: neuro-2a mouse neuroblastoma cells
rNav1.2 α-subunit = target: T1, rNav1.2 α-subunit (Rattus norvegicus, UniProt P04775); experiment: cell-based; assay type: cell-based; conditions: for EC50: rNav1.2-CHL 1610 cells, SBFI, 37°C, read-out: EC50 (nM) (95% CI), sodium influx
T1 construct: host or cells: CHL 1610 (Chinese hamster lung)
T1 sequence (P04775 whole entry): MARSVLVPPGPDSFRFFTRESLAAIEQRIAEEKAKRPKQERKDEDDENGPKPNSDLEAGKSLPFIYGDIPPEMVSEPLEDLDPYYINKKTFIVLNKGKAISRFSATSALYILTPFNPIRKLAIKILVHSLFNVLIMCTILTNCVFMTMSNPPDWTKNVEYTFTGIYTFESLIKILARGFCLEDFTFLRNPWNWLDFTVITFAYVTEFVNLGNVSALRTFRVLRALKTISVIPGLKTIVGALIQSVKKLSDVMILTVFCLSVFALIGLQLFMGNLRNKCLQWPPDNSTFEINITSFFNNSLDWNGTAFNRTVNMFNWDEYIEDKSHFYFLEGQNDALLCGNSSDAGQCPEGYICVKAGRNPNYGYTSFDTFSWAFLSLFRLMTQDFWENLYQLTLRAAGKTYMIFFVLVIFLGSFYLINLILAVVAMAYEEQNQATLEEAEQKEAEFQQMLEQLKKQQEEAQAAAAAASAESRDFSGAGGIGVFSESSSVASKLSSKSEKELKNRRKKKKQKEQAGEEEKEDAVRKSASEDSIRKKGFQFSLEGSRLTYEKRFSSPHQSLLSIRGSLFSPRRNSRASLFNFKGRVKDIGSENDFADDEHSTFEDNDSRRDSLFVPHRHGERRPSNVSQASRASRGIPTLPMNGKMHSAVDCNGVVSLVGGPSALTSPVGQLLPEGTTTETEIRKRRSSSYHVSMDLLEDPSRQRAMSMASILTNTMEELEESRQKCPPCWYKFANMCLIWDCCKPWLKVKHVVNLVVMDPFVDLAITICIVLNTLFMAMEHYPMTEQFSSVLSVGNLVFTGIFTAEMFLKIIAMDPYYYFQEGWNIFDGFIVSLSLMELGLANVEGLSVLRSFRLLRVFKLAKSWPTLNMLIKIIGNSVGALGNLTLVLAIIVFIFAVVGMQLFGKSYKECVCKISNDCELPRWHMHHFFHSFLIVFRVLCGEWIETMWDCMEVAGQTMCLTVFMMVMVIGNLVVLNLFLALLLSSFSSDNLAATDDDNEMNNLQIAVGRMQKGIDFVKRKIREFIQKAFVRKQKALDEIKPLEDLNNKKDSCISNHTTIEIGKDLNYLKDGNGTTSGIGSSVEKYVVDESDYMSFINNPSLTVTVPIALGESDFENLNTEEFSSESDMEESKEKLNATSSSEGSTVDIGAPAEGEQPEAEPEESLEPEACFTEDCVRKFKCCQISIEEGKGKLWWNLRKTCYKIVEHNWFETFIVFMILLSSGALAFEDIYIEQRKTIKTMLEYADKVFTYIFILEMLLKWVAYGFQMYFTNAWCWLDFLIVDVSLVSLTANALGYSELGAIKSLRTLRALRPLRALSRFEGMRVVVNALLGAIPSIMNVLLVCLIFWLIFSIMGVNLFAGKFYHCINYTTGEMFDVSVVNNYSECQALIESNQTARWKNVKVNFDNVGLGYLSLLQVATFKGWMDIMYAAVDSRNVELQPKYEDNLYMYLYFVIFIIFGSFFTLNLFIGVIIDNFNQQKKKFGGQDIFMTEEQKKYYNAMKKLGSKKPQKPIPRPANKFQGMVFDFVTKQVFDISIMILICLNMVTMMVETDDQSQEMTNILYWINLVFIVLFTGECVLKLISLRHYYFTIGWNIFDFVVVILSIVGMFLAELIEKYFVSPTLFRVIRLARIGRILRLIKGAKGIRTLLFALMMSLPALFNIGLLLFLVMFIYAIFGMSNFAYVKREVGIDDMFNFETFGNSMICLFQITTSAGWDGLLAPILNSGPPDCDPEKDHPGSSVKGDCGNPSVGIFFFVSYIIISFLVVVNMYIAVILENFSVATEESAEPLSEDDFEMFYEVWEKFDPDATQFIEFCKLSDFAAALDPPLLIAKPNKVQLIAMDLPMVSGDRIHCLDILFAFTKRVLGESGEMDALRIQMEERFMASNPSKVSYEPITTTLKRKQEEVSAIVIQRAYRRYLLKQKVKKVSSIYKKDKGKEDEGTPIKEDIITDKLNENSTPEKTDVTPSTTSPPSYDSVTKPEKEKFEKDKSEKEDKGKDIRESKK

rNav1.4 α-subunit = target: T2, rNav1.4 α-subunit (Rattus norvegicus, UniProt P15390); experiment: SBFI sodium influx assay in rNav1.4-HEK 293 cells; assay type: cell-based; conditions: for maximal response of sodium influx, area under the curve (AUC, fluorescence × time) (95%CI) / EC50: rNav1.4-HEK 293 cells; for EC50: SBFI, 37°C, read-out: EC50 (nM) (95% CI), sodium influx
T2 construct: host or cells: HEK 293

rNav1.5 α-subunit = target: T3, rNav1.5 α-subunit (Rattus norvegicus, UniProt P15389); experiment: SBFI sodium influx assay in rNav1.5-CHL 1610 cells; assay type: cell-based; conditions: for EC50: rNav1.5-CHL 1610 cells, SBFI, 37°C, read-out: EC50 (nM) (95% CI), sodium influx
T3 construct: host or cells: CHL 1610 (Chinese hamster lung)
T3 sequence (P15389 whole entry): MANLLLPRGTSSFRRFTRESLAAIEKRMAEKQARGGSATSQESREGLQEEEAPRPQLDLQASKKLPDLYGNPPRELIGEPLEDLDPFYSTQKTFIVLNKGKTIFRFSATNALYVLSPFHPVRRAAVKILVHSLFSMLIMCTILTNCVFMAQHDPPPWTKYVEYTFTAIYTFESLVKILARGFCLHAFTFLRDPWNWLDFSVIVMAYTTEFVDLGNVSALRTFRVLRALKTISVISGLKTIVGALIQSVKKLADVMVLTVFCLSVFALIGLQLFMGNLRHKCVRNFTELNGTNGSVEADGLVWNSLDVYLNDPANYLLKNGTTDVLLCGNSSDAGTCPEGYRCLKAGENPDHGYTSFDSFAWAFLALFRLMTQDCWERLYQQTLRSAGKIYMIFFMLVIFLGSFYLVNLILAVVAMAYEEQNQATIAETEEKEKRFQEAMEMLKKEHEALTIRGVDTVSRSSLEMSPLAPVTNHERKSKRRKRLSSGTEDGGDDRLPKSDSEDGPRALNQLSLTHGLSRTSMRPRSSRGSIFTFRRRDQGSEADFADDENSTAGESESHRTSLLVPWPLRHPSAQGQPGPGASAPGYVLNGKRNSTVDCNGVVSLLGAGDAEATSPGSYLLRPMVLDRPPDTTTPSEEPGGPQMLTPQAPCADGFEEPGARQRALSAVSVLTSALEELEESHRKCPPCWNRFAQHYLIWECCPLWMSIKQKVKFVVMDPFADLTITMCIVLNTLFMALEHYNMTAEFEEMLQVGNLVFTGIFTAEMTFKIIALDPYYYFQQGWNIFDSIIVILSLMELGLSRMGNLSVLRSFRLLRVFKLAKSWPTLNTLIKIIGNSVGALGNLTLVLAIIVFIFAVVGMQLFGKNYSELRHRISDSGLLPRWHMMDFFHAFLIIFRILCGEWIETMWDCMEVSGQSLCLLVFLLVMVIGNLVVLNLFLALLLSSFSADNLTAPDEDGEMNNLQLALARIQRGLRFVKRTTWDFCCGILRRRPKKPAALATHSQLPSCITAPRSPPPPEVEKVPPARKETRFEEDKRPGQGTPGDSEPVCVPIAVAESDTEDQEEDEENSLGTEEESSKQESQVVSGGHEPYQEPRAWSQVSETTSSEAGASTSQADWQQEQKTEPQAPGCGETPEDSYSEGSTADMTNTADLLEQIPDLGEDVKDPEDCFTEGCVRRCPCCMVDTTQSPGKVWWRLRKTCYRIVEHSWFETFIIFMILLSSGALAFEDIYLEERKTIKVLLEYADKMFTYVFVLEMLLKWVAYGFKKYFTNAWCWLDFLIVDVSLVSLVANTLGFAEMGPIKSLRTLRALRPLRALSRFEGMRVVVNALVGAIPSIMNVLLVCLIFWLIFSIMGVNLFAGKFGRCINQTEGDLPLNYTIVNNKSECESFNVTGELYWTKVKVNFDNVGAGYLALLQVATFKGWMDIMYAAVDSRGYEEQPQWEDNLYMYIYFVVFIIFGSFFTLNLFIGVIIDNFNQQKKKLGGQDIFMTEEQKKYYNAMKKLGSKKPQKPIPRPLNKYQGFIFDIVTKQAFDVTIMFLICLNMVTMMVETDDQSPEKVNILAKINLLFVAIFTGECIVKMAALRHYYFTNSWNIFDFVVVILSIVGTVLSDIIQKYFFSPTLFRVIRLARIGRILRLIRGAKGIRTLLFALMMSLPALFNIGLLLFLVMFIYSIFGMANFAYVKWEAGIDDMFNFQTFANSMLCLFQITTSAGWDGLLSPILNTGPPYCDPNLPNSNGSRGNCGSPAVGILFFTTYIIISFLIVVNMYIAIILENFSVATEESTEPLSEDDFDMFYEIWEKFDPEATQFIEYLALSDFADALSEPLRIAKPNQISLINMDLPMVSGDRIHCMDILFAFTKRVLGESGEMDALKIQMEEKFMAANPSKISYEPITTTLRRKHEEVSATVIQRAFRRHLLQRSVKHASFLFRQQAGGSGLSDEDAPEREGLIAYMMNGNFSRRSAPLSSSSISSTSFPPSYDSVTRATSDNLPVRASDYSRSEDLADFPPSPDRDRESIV

[2] = target: T4, calcium-permeable DEAA mutant of rNav1.4 α-subunit (Rattus norvegicus, UniProt P15390, K1237A); experiment: fluo-3 calcium influx assay in DEAA-HEK 293 cells; assay type: cell-based; conditions: for EC50: fluo-3, read-out: EC50, Ca2+ influx (95% CI)
T4 construct: host or cells: HEK 293

HEK 293 cells = experiment: SBFI sodium influx assay in wild type HEK 293 parent cells; assay type: cell-based, human; conditions: wild type HEK 293 parent cell line
CHL 1610 cells = experiment: SBFI sodium influx assay in wild type CHL 1610 parent cells; assay type: cell-based, Chinese hamster; conditions: wild type CHL 1610 parent cell line
[3] = tested on: rNav1.2-CHL 1610, rNav1.4-HEK 293 and rNav1.5-CHL 160 cells; assay type: cell-based; conditions: 1 μM ATX for 24 h; preliminary experiments
Experimental: Supplementary file 1471-2202-11-154-S1.TIFF: Additional file 1 Lack of toxic effect of ATX in rNav1.2-CHL 1610, rNav1.4-HEK 293 and rNav1.5-CHL 160 cells. The cells were exposed to 1 μM ATX for 24 h and the medium was collected and subjected to LDH activity measurement as described by Koh and Choi (1987; Koh, JY, and Choi, DW. Quantitative determination of glutamate mediated cortical neuronal injury in cell culture by lactate dehydrogenase efflux assay. J Neurosci Methods 20:83-90). […] Click here for file

[4] = tested on: sodium channel neurotoxin site 2; conditions: cited from earlier work
neocortical neurons = conditions: cited from earlier work

In the case of “8-demethyl-antillatoxin [reference compound]”, the “fold less potent than ATX in producing toxicity” value [1] is given as 244 fold.

For `C=C1CC(=O)N[C@@H](C)C(=O)N(C)[C@@H](C(C)C)C(=O)NCC(=O)O[C@@H](/C(C)=C/C(C)=C/C(C)(C)C)[C@@H]1C` [ATX, antillatoxin], the EC50 (rNav1.2 α-subunit) was 376 nM, the “Efficacy (relative), sodium influx” value (rNav1.2 α-subunit; rNav1.2, relative to ATX = 1) was 1 and the “maximal response of sodium influx, area under the curve (AUC, fluorescence × time) (95%CI)” value (rNav1.4 α-subunit; ATX alone) was 439.4. The “maximal response of sodium influx, area under the curve (AUC, fluorescence × time) (95%CI)” value (rNav1.4 α-subunit; ATX in the presence of PbTx-2 (3 μM)) was 537.9, the EC50 (rNav1.4 α-subunit) was 165 nM and the “Efficacy (relative), sodium influx” value (rNav1.4 α-subunit; rNav1.4, relative to ATX = 1) was 1. The “fold more potent than in neuronal rNav1.2, sodium influx” value (rNav1.4 α-subunit; skeletal muscle rNav1.4 versus rNav1.2) was 2 fold, the “fold more potent than in neuronal rNav1.2, sodium influx” value (rNav1.5 α-subunit; cardiac rNav1.5 versus rNav1.2) was 2 fold and the EC50 (rNav1.5 α-subunit) was 205 nM. The “Efficacy (relative), sodium influx” value (rNav1.5 α-subunit; rNav1.5, relative to ATX = 1) was 1, the EC50 ([2]; DEAA-HEK 293 cells) was 165 nM and the “sodium influx (in words)” value (HEK 293 cells) was “minimal sodium influx”. The “sodium influx (in words)” value (CHL 1610 cells) was “minimal sodium influx” and the “toxicity (LDH activity, in words)” value [3] was “not toxic”.

For `C=C1CC(=O)N[C@@H](C)C(=O)N(C)[C@@H](C(C)C)C(=O)NCC(=O)O[C@@H](/C(C)=C/CCC(C)(C)C)[C@@H]1C` [DH-ATX, 8-demethyl-8,9-dihydro-antillatoxin], the EC50 (rNav1.2 α-subunit) was 1130 nM, the “Efficacy (relative), sodium influx” value (rNav1.2 α-subunit; rNav1.2, relative to ATX = 1) was 0.32 and the “fold less potent than ATX, stimulation of sodium influx” value (rNav1.2 α-subunit; stated for all three cell lines (rNav1.2-CHL 1610, rNav1.4-HEK 293, rNav1.5-CHL 1610)) was 2.5 - 4 fold. For the same compound, the EC50 (rNav1.4 α-subunit) was 644 nM, the “Efficacy (relative), sodium influx” value (rNav1.4 α-subunit; rNav1.4, relative to ATX = 1) was 0.33 and the EC50 (rNav1.5 α-subunit) was 595 nM. The “Efficacy (relative), sodium influx” value (rNav1.5 α-subunit; rNav1.5, relative to ATX = 1) was 0.25, the EC50 ([2]; DEAA-HEK 293 cells) was 680 nM and the “relative efficacy, Ca2+ influx” value ([2]; DEAA-HEK 293 cells, relative to ATX) was 0.24. For the same compound, the “fold less potent than ATX in producing toxicity” value [1] was 27 fold and the EC50 ([1]; neuro-2a neuroblastoma cells, read-out: EC50, toxicity) was 1200 nM.

For `CCC[C@@H](C)[C@H](O)[C@H](C)[C@H]1OC(=O)[C@H]([C@@H](C)O)NC(=O)[C@H](C(C)C)OC(=O)[C@H](C)[C@H](O)[C@H]([C@@H](C)CC)NC(=O)[C@@]2(C)CSC(=N2)[C@@]2(C)CSC(=N2)c2csc(n2)C[C@H](OC)[C@@H]1C` [Hoiamide A, hoiamide A], the “fold more potent than veratridine, inhibition of [3H]BTX binding” value [4] is given as 360 fold and the IC50 ([4]; read-out: IC50, inhibition of [3H]BTX binding) is given as 92.8 nM.

`NC1=N[C@H](O)[C@H]2[C@H]3O[C@]4(O)O[C@@H]([C@@H](O)[C@@]2(N1)[C@@H]4O)[C@]3(O)CO` [TTX, tetrodotoxin, reference compound] showed an IC50 (rNav1.4 α-subunit; read-out: IC50, inhibition of ATX-induced sodium influx (95% CI)) of 25.2 nM.

In the case of `COc1ccc(C(=O)O[C@H]2CC[C@@]3(C)[C@@H]4CC[C@H]5[C@]6(O)C[C@H](O)[C@@]7(O)[C@@H](CN8C[C@@H](C)CC[C@H]8[C@@]7(C)O)[C@]6(O)C[C@@]53O[C@]24O)cc1OC` [Veratridine, veratridine, reference compound], the “Efficacy (relative), sodium influx” value (rNav1.2 α-subunit; rNav1.2, relative to ATX = 1) is reported as 0, the “Efficacy (relative), sodium influx” value (rNav1.4 α-subunit; rNav1.4, relative to ATX = 1) is reported as 0 and the “Efficacy (relative), sodium influx” value (rNav1.5 α-subunit; rNav1.5, relative to ATX = 1) is reported as 0. For the same compound, the “stimulation of Ca2+ influx (in words)” value ([2]; DEAA-HEK 293 cells) was “without effect” and the “efficacy, sodium influx” value (neocortical neurons; neocortical neurons) was 0.67.

With “brevetoxin-2 [PbTx-2, reference compound]” the “Efficacy (relative), sodium influx” value (rNav1.2 α-subunit) was 0, the “Efficacy (relative), sodium influx” value (rNav1.4 α-subunit) was 0 and the “Efficacy (relative), sodium influx” value (rNav1.5 α-subunit) was 0. The “stimulation of Ca2+ influx (in words)” value [2] was “without effect” and the “efficacy, sodium influx” value (neocortical neurons) was 0.81.
